Measured values: publication PMC7415810, “A novel nucleolin-binding peptide for Cancer Theranostics” (Theranostics, 2020)

Columns and labels:
MDA-MB-231 = assay: Whole-cell binding assay on OBOC peptide beads; assay type: cell-based, human; conditions: peptide on TentaGel beads incubated with cells at 10^6 cells/ml; repeated 3 times
Experimental: The beads were washed extensively with double-distilled water and phosphate-buffered saline (PBS; Welgene Inc., Korea) before screening. Cancer and normal cells were detached from culture dishes with trypsin/EDTA (Gibco), washed with their corresponding culture medium, resuspended at 10^6 cells/ml, and incubated with OBOC beads in Petri dishes in a humidified CO2 incubator at 37 °C with shaking (60 rpm). Beads bound by cells appeared under a microscope as rosettes in which a central bead was covered by one or more layers of cells. The positive beads were picked with a pipette under an inverted microscope, treated with guanidine-HCL (8 M, 20 min) to remove cells and proteins on the bead surface, and subjected to a second round of screening with normal breast epithelial cells to eliminate false positive binding.
Note : Semiquantitative relative binding activity: “++++” very strong binding (>40 cells per bead), “+++” strong binding (30
-20 cells per bead), “+ +” moderate binding (20 - 10 cells per bead), “+” weak binding (5-10 cells per bead), “-” no binding. […]
Figure S1. A, Steps performed in peptide library synthesis and screening. 1, The split-mix synthesis method was performed to construct the combinatorial OBOC libraries. […]
sized. 3, OBOC libraries were incubated with cancer cells in a CO2 incubator. 4, Beads carrying ligands with an affinity for cell surface molecules became covered with cells. 5, The positive beads were picked with a pipette under an inverted microscope. 6, The peptide sequences for positive beads were determined by Edman microse - […]
peptide libraries. B, The binding specificities of the peptides against cancer cell and normal cells were deter- […]
breast and colorectal cancer cells and normal breast and colorectal cells were re-suspended at 10^6 cells/ml and incubated with beads. All experiments were repeated 3 times. Scale bar, 200 μm.

in vivo = conditions: mouse, iv
Experimental: After 15 min of centrifugation at 5,000 rpm and 4 °C, the plasma was obtained and stored at -80 °C. Plasma peptide concentrations were quantified by ELISA, and pharmacokinetic profiles were analyzed using Phoenix WinNonlin 8.1 (Pharsight Corporation, Mountain View, CA, USA). The area under the plasma concentration-time curve (AUC), distribution half-time (T1/2), maximum plasma concentration (Cmax) and time required to reach maximum plasma concentration (Tmax) values were directly determined from the experimental data. […]
bated at 37 °C for 0, 3, 6, 9, and 24 h. The portion of serum-treated peptide remaining was determined by calcu-lating the height of the respective elution peak in analytical-HPLC and comparing it with control without incuba- […]
Plasma peptide concentrations were quantified by ELISA, and pharmacokinetic profiles were analyzed using Phoenix WinNonlin 8.1 (Pharsight Corporation, Mountain View, CA, USA). The data are presented as the means ± standard deviation.

MCF-10A cells = assay: cells; conditions: read-out: IC50, MCF-10A cells; 48 h treatment, WST-1
Experimental: (§1) Cancer and normal cells (1 × 10^4 cells/well) were seeded in 96-well plates, incubated for 24 h, and then treated with increasing concentrations of AGM-330, PTX, and AGM-330-PTX for 48 h. Cell viability was assessed by the CellVia WST-1 assay (Young In Frontier) according to the manufacturer's instructions. The numbers of viable cells were measured at a wavelength of 450 nm using a VersaMax ELISA plate reader (Molecular Devices, San Jose, CA, USA).
(§2) Figure S3. A-C, Cancer and normal cells (1 × 10^4 cells/well) were seeded in 96-well plates. After 24 h of incuba-tion, the cells were treated with an increasing concentration of dimeric or tetrameric AGM-330 for 48 h. The viability of cells grown in 0 % FBS (A), 5 % FBS (B) or 10 % FBS (C) was assessed by a CellVia WST-1 assay (Young In Frontier, Seoul, Korea) according to the manufacturer’s instruction. The numbers of viable cells were measured at a wavelength of 450 nm using an VersaMax ELISA plate reader (Molecular Devices). D, E, Binding specificity of AGM-330. A whole-cell binding assay was performed to determine the cell binding of AGM-330 in 1 % FBS (D) or 5 % FBS (E). Scale bar, 200 μm.

MDA-MB-231 cells = assay: cells; conditions: read-out: IC50, MDA-MB-231 cells; 48 h treatment, WST-1
Experimental: as §1, §2

CCD-18Co = conditions: read-out: IC50, CCD-18Co; 48 h treatment, WST-1
Experimental: as §1, §2

HCT-116 = conditions: read-out: IC50, HCT-116; 48 h treatment, WST-1
Experimental: as §1, §2

HT-29 = conditions: read-out: IC50, HT-29; 48 h treatment, WST-1
Experimental: as §1, §2

MCF-7 = conditions: read-out: IC50, MCF-7; 48 h treatment, WST-1
Experimental: as §1, §2

[1] = test system: PI3K/Akt phosphorylation in MDA-MB-231 cells; assay: Immunoblot analysis of PI3K/Akt signaling; assay type: cell-based, human; conditions: AGM-330 10, 50, 100 μM, anti-NCL antibody 20, 50 μg/mL
Experimental: Cells were washed with PBS and lysed on ice for 30 min. Protein extracts were mixed with loading buffer, and boiled at 100 °C for 5 min. A total volume of 50 µl of the denatured protein samples were loaded on 10% gels. A voltage of 80 V was applied to samples and then adjusted to 120 V when protein reached the separation gel. Next, protein was transferred to PVDF membranes for 2 h at 4 °C. PVDF membranes were washed with TBS-T 3 times, and blocked with skim milk for 1 h at room temperature. Primary antibodies were used to detect AKT (1:1000; Abcam), p-AKT (1:1000; Abcam), PI3K (1:1000; Abcam), p-PI3K (1:1000; Abcam). Membranes were treated with primary antibody overnight at 4 °C, washed with TBS-T, and incubated with secondary antibody for 1 h at room temperature. Membranes were washed and developed.
Figure S8. A-D, Western blot analysis of PI3K/Akt signaling in MDA-MB-231 cells stimulated by increasing
concentrations of an anti-NCL antibody and AGM-330. After treatment with the anti-NCL antibody (A,B) or
AGM-330 (C,D), the protein levels of p-PI3K, PI3K, p-Akt and Akt were assessed by immunoblot analysis. The

CSCC[C@H](NC(=O)[C@H](C)NC(=O)CNC(=O)[C@H](Cc1c[nH]cn1)NC(=O)[C@@H](N)CCCNC(=N)N)C(=O)N[C@H](C(=O)N[C@@H](Cc1ccc(O)cc1)C(=O)N[C@@H](CC(C)C)C(=O)N[C@@H](CCCCN)C(=O)NCCOCCOCCOCCOCCOCCOCCOCCOCCOCCOCCOCCOCCC(=O)NCCCC[C@H](NC(=O)CCOCCOCCOCCOCCOCCOCCOCCOCCOCCOCCOCCOCCNC(=O)[C@H](CCCCN)NC(=O)[C@H](CC(C)C)NC(=O)[C@H](Cc1ccc(O)cc1)NC(=O)[C@@H](NC(=O)[C@H](CCSC)NC(=O)[C@H](C)NC(=O)CNC(=O)[C@H](Cc1c[nH]cn1)NC(=O)[C@@H](N)CCCNC(=N)N)C(C)C)C(=O)NCCCC[C@H](NC(=O)[C@H](CCCCNC(=O)CCOCCOCCOCCOCCOCCOCCOCCOCCOCCOCCOCCOCCNC(=O)[C@H](CCCCN)NC(=O)[C@H](CC(C)C)NC(=O)[C@H](Cc1ccc(O)cc1)NC(=O)[C@@H](NC(=O)[C@H](CCSC)NC(=O)[C@H](C)NC(=O)CNC(=O)[C@H](Cc1c[nH]cn1)NC(=O)[C@@H](N)CCCNC(=N)N)C(C)C)NC(=O)CCOCCOCCOCCOCCOCCOCCOCCOCCOCCOCCOCCOCCNC(=O)[C@H](CCCCN)NC(=O)[C@H](CC(C)C)NC(=O)[C@H](Cc1ccc(O)cc1)NC(=O)[C@@H](NC(=O)[C@H](CCSC)NC(=O)[C@H](C)NC(=O)CNC(=O)[C@H](Cc1c[nH]cn1)NC(=O)[C@@H](N)CCCNC(=N)N)C(C)C)C(=O)N[C@@H](CS)C(=O)O)C(C)C [AGM-330]
Semiquantitative relative binding activity, MDA-MB-231 (MDA-MB-231): ++++ (very strong binding (>40 cells per bead)) | Cmax (in vivo): 1880 ± 670 ng/mL | T1/2 (in vivo): 566 ± 72.6 min | Tmax (in vivo): 10 min | peptide remaining after 24 h in vivo (in vivo): more than 25% | IC50 (MCF-10A cells): > 100 µM | IC50 (MDA-MB-231 cells): > 100 µM | IC50 (CCD-18Co): > 100 µM | IC50 (HCT-116): > 100 µM | IC50 (HT-29): > 100 µM | IC50 (MCF-7): > 100 µM | effect on PI3K/Akt phosphorylation [1]: did not suppress
